Measured values as given in patent US20180256495A1 (MEDRx Co., Ltd., priority 2008, published 2018).
Read-outs that look alike come from different tables or passages of the source.

Columns and labels:
[1] = cited from earlier work; for logP (Log P of organic acid, Calculated) / logP of organic acid (calc.) / Log P of organic acid (calc.): organic acid itself; for logP (calc.): basic drug itself, value published in PubMed; for log P: lipid solubility of the named drug or organic acid itself
[2] = State of the liquid preparation (precipitation, homogeneity, solubility or dispersion of the salt)
[3] = Evaluation test of transdermal absorbability (skin penetrability) with a Franz diffusion cell; type: in vitro ADME; settings: free basic drug, liquid preparation 2 w/w %, rat skin, 32° C.
[4] = stated in brackets in the synthesis examples; cited from earlier work
[5] = wrapped cell, full remark: tendency of salt to be divided into two layers

SMILES | logP (Log P of organic acid, Calculated) ([1]; value from PubMed) | Log P of organic acid (calc.) ([1]; value from PubMed) | Penetrated Amount (amount of skin-penetrated drug during 3 hours) [3] [μg/cm^2] | logP of organic acid (calc.) ([1]; value from PubMed) | further results
CCCCC(CC)C(=O)O (stereo not drawn) [2-ethylhexanoic acid] | 2.7 |  |  |  | 
CC(O)CC(=O)O (stereo not drawn) [3-hydroxybutyric acid] | −0.5 |  |  |  | 
CC(O)C(=O)O.CCN(CC)CC(=O)Nc1c(C)cccc1C [Lactic acid salt of lidocaine, lactic acid salt of lidocaine] |  |  |  |  | Remarks, Test Example 7: 2% liquid preparation (solvent system) ([2]; wrapped cell, full remark: homogeneously dispersed solution): homogeneously; Remarks, Example 13: 20% viscous liquid preparation (liquid paraffin) [2, 5]: tendency of salt to; Remarks, Example 14: 20% viscous liquid preparation (solvent + liquid paraffin) [2, 5]: tendency of salt to
CC(=O)NCC(=O)O [N-acetylglycine] |  | −3.1 |  |  | logP of organic acid (calc.) [1]: −3.1
CC(=O)Oc1ccccc1C(=O)O [acetylsalicylic acid] | 1.4 |  |  |  | 
CN(C)CCC=C1c2ccccc2CCc2ccccc21 [amitriptyline, reference compound] |  |  | 7 |  | logP (calc.) [1]: 4.9; log P [1]: 4.9
CCc1ccc(C(=O)C(C)CN2CCCCC2)cc1 (stereo not drawn) [eperisone, reference compound] |  |  | 14 |  | logP (calc.) [1]: 3.6
CN(C)CCCN1c2ccccc2CCc2ccccc21 [imipramine] |  |  | 10 |  | 
CC(C)CCCCCCCCCCCCCCC(=O)O [isostearic acid] | 7 | 7 |  | 7 | logP of organic acid (calc.) [1]: 7
CC(=O)CCC(=O)O [levulinic acid] | −0.4 | −0.4 |  | −0.4 | logP of organic acid (calc.) [1]: −0.4
COCC(=O)O [methoxyacetic acid] | −0.6 | −0.6 |  | −0.6 | logP of organic acid (calc.) [1]: −0.6; Remarks (state of the liquid preparation) ([2]; morphine 2 w/w % liquid preparation with the row's acid, wrapped cell 'small amount of' + 'precipitation' = small amount of white precipitation remained): homogeneous solution
CCCCCCCC(=O)O [octanoic acid] |  | 3 |  | 3 | logP of organic acid (calc.) [1]: 3
O=C(O)c1ccc(O)cc1 [p-hydroxybenzoic acid] | 1.2 |  |  |  | 
CC(C)=CCN1CCC2(C)c3cc(O)ccc3CC1C2C (stereo not drawn) [pentazocine, reference compound] |  |  | 40 |  | logP (calc.) [1]: 3.7; log P [1]: 3.7; pKa [4]: 8.0
CCC(=O)O [propionic acid] |  | 0.2 |  | 0.2 | 
O=C(O)c1ccccc1O [salicylic acid] | 2.4 | 2.4 |  | 2.4 | 
Cc1ccc(C(=O)C(C)CN2CCCCC2)cc1 (stereo not drawn) [tolperisone, reference compound] |  |  | 26 |  | logP (calc.) [1]: 3.1
COc1cccc(C2(O)CCCCC2CN(C)C)c1 (stereo not drawn) [tramadol, reference compound] |  |  | 122 |  | logP (calc.) [1]: 2.4; log P [1]: 2.4
